Test system: TRβ1 gene
Experiment: RT-PCR for TRβ1 transcript in breast cancer cell lines after 5-azaC treatment
Assay type: cell-based
Conditions: MCF7 breast cancer cell line
From the text: The region of most common LOH in the experiments described in Example I include the region of the TRβ1 gene. Therefore, we evaluated TRβ1 gene expression in breast cancer cell lines by RT-PCR, using primers encompassing exons 4–7. The primers used for RT-PCR of the TRβ1 transcript were TRβ-F 5′ […] 3′ (forward) (SEQ ID NO:1) and TRβ-R 5′ TGAGCTCCCATTCCTCGTC 3′ (reverse) (SEQ ID NO:2). Presence of a TRβ1 transcript was indicated by the presence of a 500 bp RT-PCR product using template mRNA isolated from non-cancerous or breast cancer cell lines. As a control, corresponding GAPDH transcript levels for each sample was measured within the same PCR reaction mixture by amplifying a 250 bp fragment using the following primers 5′ […] 3′ (forward) (SEQ ID NO:3) and 5′ […] 3′ (reverse) (SEQ ID NO:4). […] Fluorescent in situ hybribization (FISH) analysis was carried out on the cells to determine the copy number of the TRβ1 gene. FISH data is reported as the percentage of cells in which TRβ1 copy number was fewer than the centromeric signal for chromosome 3. The breast cancer cell lines that were used in this study include DU4475, MDA435, SKBR3, MCF7, BT20, MDA157, MDA231, BT474, CAMA1 and T47D. All of these cell lines are available from American Type Culture Collection, Manassas, Va.

Nc1ncn([C@@H]2O[C@H](CO)[C@@H](O)[C@H]2O)c(=O)n1 [5-azaC] was tested, and the “RT-PCR for TRβ1, before versus after 5-aza C treatment” value was “*RT-PCR for MCF7 was the same before and after 5-aza C treatment”.
